Data from US12221459B2, “Cancer treatment with (2,2-bishydroxymethyl) methylenecyclopropane nucleotides” (MEDIVIR AB, priority 2018, dated 2025).

Experiments:
[1] = Structural integrity of triester phosphoroalaninates by LC MS over 22-29 days; type: physicochemical
Procedure: Instability of Triester Phosphoroalaninates
Intermediate compounds I-19 d2 and I-25 synthesised above are triesterphosphoro-alaninates resembling the prior art compound described in Yan et al, J Med Chem 2005 48 91-99:
The structural integrity of these model compounds was assessed by LC MS over a 22-29 day period, as follows: […]

EOL-1 (human) = test: Leukemia cell line activity assay (Cell Counting Kit-8, 5 days), EOL-1; details: Homo sapiens, EOL1, 120 h, read-out: EOL.1 CC50
Procedure: (§1) Compounds of the invention were evaluated for activity against the leukemia cell lines THP-1, EOL-1 and MV4-11, using the following assay:
(§2) Test compounds were made up to 10 mM stock solution in DMSO
(§3) Leukemia cells (THP-1, EOL-1 and MV4-11) were grown in a cell culture flask 75 cm^2 with approximately 100 ml complete cell medium. The cells were counted using a Scepter-hand held automated cell counter, using 60 μm sensors (Millipore) and suspended in complete cell medium to 2×10^5 cells. 100 μl of the cell suspension were seeded to all wells (2×10^4 cells/well).
(§4) The compounds were tested in twelve concentrations, 10-fold serial dilutions, 50 μM-5×10^−10 μM.
(§5) 100 μl from a compound dilution plate were transferred to the cell assay plate=200 μl/well total volume and incubated for 5 days, at 37° C., 5% CO2 incubator.
(§6) After 5 days, 10l of KIT-8 was added and the culture was incubated for 3-4 hours, at 37° C., 5% CO2 incubator.
(§7) Plate were read in the spectrophotometer at wavelength 450 nm with a reference filter of 620 nm.
(§8) CC50 values are calculated by plotting the degree of inhibition (compared to the vehicle ctrl) against the logarithm of the compound concentration. Result values in the dilution series are fitted to a 4-parameter sigmoidal dose-response curve described by the expression: F(x)=D+(A−D)/(1+(x/C)^B) where: • A=Minimum • B=Slope. • C=Inflection point. The inflection point is defined as the point on the curve where the curvature changes direction or signs. • D=Maximum • F=fraction inhibition

[2] = tested on: THP-1 (human acute monocytic leukemia); test: Leukemia cell line activity assay (Cell Counting Kit-8, 5 days), THP-1; details: Homo sapiens, THP-1, 120 h, read-out: THP-1 CC50, THP-1 cells, 5 days incubation
Procedure: as §1, §2, §3, §4, §5, §6, §7, §8

[3] = tested on: MV4-11 cells, human B-myelomonocytic leukemia; test: Leukemia cell line activity assay (Cell Counting Kit-8, 5 days), MV4-11; details: Homo sapiens, MV4-11, 120 h, read-out: MV4-11 CC50, MV4-11 cells, 5 days incubation
Procedure: as §1, §2, §3, §4, §5, §6, §7, §8

SMILES | LCMS purity ([1]; Day 0) | LCMS purity ([1]; Day 5) | LCMS purity ([1]; Day 14) | LCMS purity ([1]; Day 22) | CC50 (EOL-1 (human)) | CC50 [2] | CC50 [3] | LCMS purity ([1]; Day 29)
CCC[C@H](C)OC(=O)[C@H](C)N[P@](=O)(OC[C@]1(CO)C/C1=C/n1cnc2c(=O)[nH]c(N)nc21)Oc1ccc(Br)cc1 (single isomer, unassigned) [Intermediate I-19 d2] | 96.86% | 94.32% | 88.76% | 73.76% | – | – | – | –
CCCC(CCC)COC(=O)[C@H](C)N[P@](=O)(OCC1(COC(=O)C(C)(C)C)C/C1=C/n1cnc2c(=O)[nH]c(N)nc21)Oc1ccccc1 (stereo partly drawn) [Example 38, ((Z)-2-((2-amino-6-oxo-1,6-dihydro-9H-purin-9-yl)methylene)-1-((((S)-(((S)-1-oxo-1-((2-propylpentyl)oxy)propan-2-yl)amino)(phenoxy)phosphoryl)ox)methyl)cyclopropyl)methyl pivalate] | – | – | – | – | 210 nM | 190 nM | 310 nM | –
CC(C)OC(=O)[C@H](C)N[P@](=O)(OC[C@@]1(CO)C/C1=C/n1cnc2c(=O)[nH]c(N)nc21)Oc1ccc(C2(C)CC2)cc1 [Intermediate I-25, (S)-Isopropyl 2-(((S)-(((S,Z)-2-((2-amino-6-oxo-1H-purin-9(6H)-yl)methylene)-1-(hydroxymethyl)cyclopropyl)methoxy)(4-(1-methylcyclopropyl)phenoxy)phosphoryl)amino)propanoate] | 95.56% | 88.14% | 82.67% | 77.76% | – | – | – | 72.84%
